Measurements as given in patent US20230339952A1, “MACROCYCLIC HETEROCYCLES AND USES THEREOF” (Kumquat Biosciences Inc., priority 2022, published 2023).

How the values were obtained:
SOS1 = SOS1 (Homo sapiens (Human), UniProt Q07889); experiment: Ras-SOS interaction assay (HTRF), K-Ras G13D utilized; type: binding; conditions: K-Ras G13D, read-out: SOS1 IC50
Text: For example, the equilibrium interaction of human SOS1 (hSOS1) with human wildtype Kras or K-Ras mutant (e.g., hK-Ras G12C mutant, or hK-Ras G12C) can be assessed as a proxy or an indication for a subject compound's ability to inhibit SOS. Detection of such interaction is achieved by measuring homogenous time-resolved fluorescence resonance energy transfer (HTRF) from (i) a fluorescence resonance energy transfer (FRET) donor (e.g., antiGST-Europium) that is bound to GST-tagged K-Ras G12C to (ii) a FRET acceptor (e.g., anti-6His-XL665) bound to a His-tagged hSOS1.
A Ras working solution is prepared in assay buffer containing typically 10 nM of the protein construct (e.g., GST-tagged hK-Ras G12C) and 2 nM of the FRET donor (e.g., antiGST-Eu(K) from Cisbio, France). A SOS1 working solution is prepared in assay buffer containing typically 10 nM of the protein construct (e.g., His-hSOS1) and 10 nM of the FRET acceptor (e.g., anti-6His-XL665 from Cisbio, France). An inhibitor control solution is prepared in assay buffer containing 10 nM of the FRET acceptor without the SOS1 protein.
A fixed reaction mixture with or without test compound is transferred into a 384-well plate. Ras working solution is added to all wells of the test plate. SOS1 working solution is added to all wells except for those that are subsequently filled with the inhibitor control solution. […] The ratiometric data (i.e., emission 2 divided by emission 1) is used to calculate IC50 values against SOS1 using GraphPad Prism (GraphPad software).

[1] = test system: NCI-H1975 (ATCC CRL-5908) cell line comprising an EGFR T790M L858R double mutation; experiment: EGFR-SOS cellular inhibition assay (CellTiter-Glo cell proliferation); type: cell-based; conditions: Homo sapiens, 120 h; NCI-H1975 cell proliferation, approximately 5 days; read-out: H1975 IC50
Protocol: A CellTiter-Glo (CTG) luminescent based assay (Promega) is used to assess growth of the cells, as a measurement of the ability of the compounds herein to inhibit EGFR signaling in the cells. […] The day after plating, cells are treated with a dilution series (e.g., a 9 point 3-fold dilution series) of the compounds herein (e.g., approximately 125 μL final volume per well).

SOS1, sequence (Q07889 564-1049): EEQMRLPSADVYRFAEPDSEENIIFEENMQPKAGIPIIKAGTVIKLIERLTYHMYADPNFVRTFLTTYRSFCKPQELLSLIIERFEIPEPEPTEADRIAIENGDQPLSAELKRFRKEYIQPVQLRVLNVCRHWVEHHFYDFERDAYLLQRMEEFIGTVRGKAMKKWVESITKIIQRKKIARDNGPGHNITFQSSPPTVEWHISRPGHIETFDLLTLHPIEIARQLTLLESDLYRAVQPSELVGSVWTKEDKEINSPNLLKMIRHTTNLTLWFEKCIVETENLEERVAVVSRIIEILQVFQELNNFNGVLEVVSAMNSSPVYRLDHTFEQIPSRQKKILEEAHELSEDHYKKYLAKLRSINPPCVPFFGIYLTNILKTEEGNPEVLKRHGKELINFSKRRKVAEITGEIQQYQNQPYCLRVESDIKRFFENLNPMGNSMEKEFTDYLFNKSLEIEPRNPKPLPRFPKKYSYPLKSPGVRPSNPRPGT

Compound	IC50 (SOS1) [nM]	IC50 [1] [nM]
C[C@H]1Nc2ncnc3c2cc(C2(C#N)CCS(=O)(=O)CC2)c(=O)n3CCCCCCN2CCC(CC2)CC(F)(F)c2cccc1c2F [Compound 23, 4-((3R)-4^2,5,5-trifluoro-3-methyl-1^7-oxo-1^7,1^8-dihydro-2-aza-1(4,8)-pyrido[2,3-d]pyrimidina-7(4,1)-piperidina-4(1,3)-benzenacyclotridecaphane-1^6-yl)tetrahydro-2H-thiopyran-4-carbonitrile 1,1-dioxide]	< 100	< 1000
CC1CC/C=C\CCn2c(=O)c(C3(C#N)CC3)cc3c(ncnc32)N[C@H](C)c2cccc(c2F)C(F)(F)C2CCN1CC2 (stereo partly drawn) [Compound 24, 1-((4R,Z)-3^2,2,2-trifluoro-4,13-dimethyl-6^7-oxo-6^7,6^8-dihydro-5-aza-6(4,8)-pyrido[2,3-d]pyrimidina-1(4,1)-piperidina-3(1,3)-benzenacyclotridecaphan-9-en-6^6-yl)cyclopropane-1-carbonitrile]	< 100	< 1000
C[C@H]1Nc2ncnc3c2cc(C2(C#N)CC2)c(=O)n3CCCC(=O)N(C)CCN2CCC(CC2)C(F)(F)c2cccc1c2 [Compound 27, 1-((4R)-2,2-difluoro-4,11-dimethyl-6^7,10-dioxo-6^7,6^8-dihydro-5,11-diaza-6(4,8)-pyrido[2,3-d]pyrimidina-1(4,1)-piperidina-3(1,3)-benzenacyclotridecaphane-6^6-yl)cyclopropane-1-carbonitrile]	< 100	< 1000
C[C@H]1Nc2ncnc3c2cc(C2CCS(=O)(=O)CC2)c(=O)n3CCCCCCC(=O)N2CCC(CC2)C(F)(F)c2cccc1c2F [Compound 28, (4R)-6^6-(1,1-dioxidotetrahydro-2H-thiopyran-4-yl)-3^2,2,2-trifluoro-4-methyl-6^7,6^8-dihydro-5-aza-6(4,8)-pyrido[2,3-d]pyrimidina-1(4,1)-piperidina-3(1,3)-benzenacyclotridecaphane-6^7,13-dione]	< 100	< 1000
C[C@H]1Nc2ncnc3c2cc(C2CCS(=O)(=O)CC2)c(=O)n3CCCC(=O)NCCN2CCC(CC2)C(F)(F)c2cccc1c2 [Compound 30, (4R)-6^6-(1,1-dioxidotetrahydro-2H-thiopyran-4-yl)-2,2-difluoro-4-methyl-6^7,6^8-dihydro-5,11-diaza-6(4,8)-pyrido[2,3-d]pyrimidina-1(4,1)-piperidina-3(1,3)-benzenacyclotridecaphane-6^7,10-dione]	< 100	< 1000
CC1CCCCCCn2c(=O)c(C3(C#N)CC3)cc3c(ncnc32)N[C@H](C)c2cccc(c2F)C(F)(F)C2CCN1CC2 (stereo partly drawn) [Compound 34, 1-((4R)-3^2,2,2-trifluoro-4,13-dimethyl-6^7-oxo-6^7,6^8-dihydro-5-aza-6(4,8)-pyrido[2,3-d]pyrimidina-1(4,1)-piperidina-3(1,3)-benzenacyclotridecaphane-6^6-yl)cyclopropane-1-carbonitrile]	< 100	< 1000
C[C@@H]1C(=O)NCCCCn2c(=O)c(C3(C#N)CC3)cc3c(ncnc32)N[C@H](C)c2cccc(c2)C(F)(F)C2CCN1CC2 [Compound 36, 1-((4R,13R)-2,2-difluoro-4,13-dimethyl-6^7,12-dioxo-6^7,6^8-dihydro-5,11-diaza-6(4,8)-pyrido[2,3-d]pyrimidina-1(4,1)-piperidina-3(1,3)-benzenacyclotridecaphane-6^6-yl)cyclopropane-1-carbonitrile]	< 100	< 1000
C[C@H]1Nc2ncnc3c2cc(N2CCS(=O)(=O)CC2)c(=O)n3CCCCCCCN2CCC(CC2)C(F)(F)c2cccc1c2F [Compound 38, (4R)-6^6-(1,1-dioxidothiomorpholino)-3^2,2,2-trifluoro-4-methyl-6^7,6^8-dihydro-5-aza-6(4,8)-pyrido[2,3-d]pyrimidina-1(4,1)-piperidina-3(1,3)-benzenacyclotridecaphan-6^7-one]	< 100	< 1000
C[C@H]1Nc2ncnc3c2cc(C2CCS(=O)(=O)CC2)c(=O)n3Cc2cn(nn2)CCCCN2CCC(CC2)C(F)(F)c2cccc1c2 [Compound 40, (5R,Z)-3^6-(1,1-dioxidotetrahydro-2H-thiopyran-4-yl)-7,7-difluoro-5-methyl-3^7,3^8-dihydro-1^1H-4-aza-3(8,4)-pyrido[2,3-d]pyrimidina-8(4,1)-piperidina-1(4,1)-triazola-6(1,3)-benzenacyclododecaphan-3^7-one]	< 100	< 1000
C[C@H]1Nc2ncnc3c2cc(C2CCS(=O)(=O)CC2)c(=O)n3CCCN(C)C(=O)CCN2CCC(CC2)C(F)(F)c2cccc1c2 [Compound 41, (4R)-6^6-(1,1-dioxidotetrahydro-2H-thiopyran-4-yl)-2,2-difluoro-4,10-dimethyl-6^7,6^8-dihydro-5,10-diaza-6(4,8)-pyrido[2,3-d]pyrimidina-1(4,1)-piperidina-3(1,3)-benzenacyclotridecaphane-6^7,11-dione]	< 100	< 1000
C[C@H]1Nc2ncnc3c2cc(N2CCS(=O)(=O)CC2)c(=O)n3CCCCCCCN2CCC(CC2)C(F)(F)c2cccc1c2 [Compound 42, (4R)-6^6-(1,1-dioxidothiomorpholino)-2,2-difluoro-4-methyl-6^7,6^8-dihydro-5-aza-6(4,8)-pyrido[2,3-d]pyrimidina-1(4,1)-piperidina-3(1,3)-benzenacyclotridecaphan-6^7-one]	< 100	< 1000
C[C@H]1Nc2ncnc3c2cc(C2(C#N)CC2)c(=O)n3CCCCCCCN2CCC(CC2(C)C)C(F)(F)c2cccc1c2 (stereo partly drawn) [Compound 43, 1-((4R)-2,2-difluoro-1^2,1^2,4-trimethyl-6^7-oxo-6^7,6^8-dihydro-5-aza-6(4,8)-pyrido[2,3-d]pyrimidina-1(4,1)-piperidina-3(1,3)-benzenacyclotridecaphane-6^6-yl)cyclopropane-1-carbonitrile]	< 100	< 1000
Cc1nc2c3cc(C4(C#N)CC4)c(=O)n(c3n1)CCCCCCCOCC(F)(F)c1cccc(c1F)[C@@H](C)N2 [Compound 44, 1-((3R)-4^2,5,5-trifluoro-1^2,3-dimethyl-1^7-oxo-1^7,1^8-dihydro-7-oxa-2-aza-1(4,8)-pyrido[2,3-d]pyrimidina-4(1,3)-benzenacyclotetradecaphane-1^6-yl)cyclopropane-1-carbonitrile]	100 to 5000	1000 to 10000
C[C@H]1Nc2ncnc3c2cc(C2CCS(=O)(=O)CC2)c(=O)n3CC(=O)N(C)CCCCN2CCC(CC2)C(F)(F)c2cccc1c2 [Compound 46, (4R)-6^6-(1,1-dioxidotetrahydro-2H-thiopyran-4-yl)-2,2-difluoro-4,9-dimethyl-6^7,6^8-dihydro-5,9-diaza-6(4,8)-pyrido[2,3-d]pyrimidina-1(4,1)-piperidina-3(1,3)-benzenacyclotridecaphane-6^7,8-dione]	< 100	< 1000
C[C@H]1Nc2ncnc3c2cc(C2CCS(=O)(=O)CC2)c(=O)n3CCCCCCCCCN2CCC(CC2)C(F)(F)c2cccc1c2 [Compound 47, (4R)-6^6-(1,1-dioxidotetrahydro-2H-thiopyran-4-yl)-2,2-difluoro-4-methyl-6^7,6^8-dihydro-5-aza-6(4,8)-pyrido[2,3-d]pyrimidina-1(4,1)-piperidina-3(1,3)-benzenacyclopentadecaphan-6^7-one]	< 100	< 1000
Cc1nc2c3cc(C4(C#N)CC4)c(=O)n(c3n1)CCCCCCCCOCC(F)(F)c1cccc(c1F)[C@@H](C)N2 [Compound 49, 1-((3R)-4^2,5,5-trifluoro-1^2,3-dimethyl-1^7-oxo-1^7,1^8-dihydro-7-oxa-2-aza-1(4,8)-pyrido[2,3-d]pyrimidina-4(1,3)-benzenacyclopentadecaphane-1^6-yl)cyclopropane-1-carbonitrile]	< 100	< 1000
CC(C)N1CCN(c2cc3c4ncnc3n(c2=O)CCCCCCN2CCC(CC2)CC(F)(F)c2cccc(c2)[C@@H](C)N4)CC1 [Compound 50, (3R)-5,5-difluoro-1^6-(4-isopropylpiperazin-1-yl)-3-methyl-1^7,1^8-dihydro-2-aza-1(4,8)-pyrido[2,3-d]pyrimidina-7(4,1)-piperidina-4(1,3)-benzenacyclotridecaphan-1^7-one]	< 100	< 1000
C[C@H]1Nc2ncnc3c2cc(C2(C#N)CC2)c(=O)n3CC(=O)N(C)CCCCN2CCC(CC2)C(F)(F)c2cccc1c2 [Compound 52, 1-((4R)-2,2-difluoro-4,9-dimethyl-6^7,8-dioxo-6^7,6^8-dihydro-5,9-diaza-6(4,8)-pyrido[2,3-d]pyrimidina-1(4,1)-piperidina-3(1,3)-benzenacyclotridecaphane-6^6-yl)cyclopropane-1-carbonitrile]	< 100	< 1000
